Experimental data taken from article PMC10981727, “Design, synthesis and bioactivity study on oxygen-heterocyclic-based pyran analogues as effective P-glycoprotein-mediated multidrug resistance in MCF-7/ADR cell” (Scientific Reports, 2024).
Read-outs that look alike come from different tables or passages of the source.

Key:
SKOV-3 = experiment: MTT viability assay, SKOV-3; assay type: cell-based; details: for IC50: MTT, 24 h incubation, mean ± standard error; for times more potency than Doxorubicin, SKOV-3 / times more potency than Vinblastine, SKOV-3: ratio of IC50 values
Procedure: (§1) Using concentrations ranging from 0 to 100 μM against PC-3, SKOV-3, and HeLa cancerogenic cell lines, target compounds 4a–l were assessed for their anticancer activities[53] and compared with the commercially available Vinblastine and Doxorubicin. […] The compounds with the greatest cytotoxic activity against the cancerous cell lines PC-3, SKOV-3, and HeLa were 4a–c, 4g, and 4h. […] We selected the cytotoxic active compounds 4a–c, 4g, and 4h to be evaluated against MCF-7/ADR cancerogenic and HFL-1 and WI-38 non-cancerogenic cell lines (Figs. 7, 8 and Table 1).
(§2) The tumor cell lines (PC-3, SKOV-3, and HeLa), resistant cell strains (MCF-7/ADR) and the normal cell lines, (HFL-1, WI-38) were obtained from the American Type Culture Collection (ATCC, Rockville, MD, USA).
(§3) The tumor cell lines were suspended in medium at concentration 5 × 10^4 cells well^−1 in Corning® 96-well tissue culture plates and then incubated for 24 h. The tested compounds with concentrations ranging from 0 to 100 μM were then added into 96-well plates (six replicates) to achieve six different concentrations for each compound. Six vehicle controls with media or 0.5% DMSO were run for each 96 well plate as a control. After incubating for 24 h, the numbers of viable cells were determined by the MTT test[53]. Briefly, the media was removed from the 96 well plates and replaced with 100 μl of fresh culture RPMI 1640 medium without phenol red then 10 μl of the 12 mM MTT stock solution (5 mg of MTT in 1 ml of PBS) to each well including the untreated controls. The 96-well plates were then incubated at 37 °C and 5% CO2 for 4 h. An 85-μl aliquot of the media was removed from the wells, and 50 μl of DMSO was added to each well and mixed thoroughly with the pipette and incubated at 37 °C for 10 min. Then, the optical density was measured at 590 nm with the microplate reader (Sunrise, TECAN, Inc, USA) to determine the number of viable cells and the percentage of viability was calculated as […] where ODt is the mean optical density of wells treated with the tested sample and ODc is the mean optical density of untreated cells. The relation between surviving cells and drug concentration is plotted to get the survival curve of each tumor cell line after treatment with the specified compound. The 50% inhibitory concentration (IC50), the concentration required to cause toxic effects in 50% of intact cells, was estimated from graphic plots of the dose response curve for each concentration.

PC-3 [1] = experiment: MTT viability assay, PC-3; assay type: cell-based; details: for IC50: MTT, 24 h incubation, mean ± standard error
Procedure: as §1, §2, §3

HeLa [2] = experiment: MTT viability assay, HeLa; assay type: cell-based; details: 24 h incubation, mean ± standard error
Procedure: as §1, §2, §3

MCF-7/ADR = experiment: MTT viability assay, resistant MCF-7/ADR; assay type: cell-based; details: for IC50: Homo sapiens, NCI/ADR-RES, MTT, 24 h exposure, mean ± standard error; for activity against MCF-7/ADR cell (in words): with regard to Doxorubicin
Procedure: as §1, §2, §3

human fetal lung (HFL-1) = experiment: MTT viability assay, normal HFL-1; assay type: cell-based; details: HFL1, normal cell line, 24 h, mean ± standard error
Procedure: as §1, §2, §3

[3] = tested on: human diploid fibroblasts (WI-38); experiment: MTT viability assay, normal WI-38; assay type: cell-based; details: normal cell line, 24 h, mean ± standard error
Procedure: as §1, §2, §3

MCF-7 = tested on: MCF-7; design: method as in PMID 31586716; details: Fig. 5, 9-Br first generation derivatives; cited from earlier work
HepG-2 = tested on: HepG-2; design: method as in PMID 31586716; details: Fig. 5, 9-Br first generation derivatives; cited from earlier work
HCT-116 = tested on: HCT-116; design: method as in PMID 31586716; details: Fig. 5, 9-Br first generation derivatives; cited from earlier work
HeLa [4] = tested on: HeLa; design: method as in PMID 34670333; details: Fig. 5, 9-OMe second generation derivatives; cited from earlier work
A549 = tested on: A549; design: method as in PMID 34670333; details: Fig. 5, 9-OMe second generation derivatives; cited from earlier work
PC-3 [5] = tested on: PC-3; design: method as in PMID 34670333; details: Fig. 5, 9-OMe second generation derivatives; cited from earlier work
MIA PaCa-2 = tested on: MIA PaCa-2; design: method as in PMID 34670333; details: Fig. 5, 9-OMe second generation derivatives; cited from earlier work
RPMI 7951 = tested on: RPMI 7951; design: method as in PMID 34670333; details: Fig. 5, 9-OMe second generation derivatives; cited from earlier work
MDA-MB-231 = tested on: MDA-MB-231; design: method as in PMID 34670333; details: Fig. 5, 9-OMe second generation derivatives; cited from earlier work

N#CC1=C(N)Oc2ccc3ccc(O)cc3c2C1c1ccc(Cl)cc1 (stereo not drawn) [4d, 3-Amino-1-(4-chlorophenyl)-9-hydroxy-1H-benzo[f]chromene-2-carbonitrile]
IC50 (SKOV-3; Homo sapiens, SK-OV-3): 35.6 ± 0.4 µM | IC50 (PC-3 [1]; Homo sapiens, PC-3): 8.8 ± 0.7 µM | IC50 (HeLa [2]; Homo sapiens, HeLa): 21.9 ± 1.1 µM | melting point: 285 to 286 °C

N#CC1=C(N)Oc2ccc3ccc(O)cc3c2C1c1ccc(Br)cc1 (stereo not drawn) [4e, 3-Amino-1-(4-bromophenyl)-9-hydroxy-1H-benzo[f]chromene-2-carbonitrile]
IC50 (SKOV-3; Homo sapiens, SK-OV-3): 4.8 ± 1.1 µM | IC50 (PC-3 [1]; Homo sapiens, PC-3): 8.8 ± 1.2 µM | IC50 (HeLa [2]; Homo sapiens, HeLa): 7.9 ± 1.6 µM | melting point: 285 to 286 °C

Cc1ccc(C2C(C#N)=C(N)Oc3ccc4ccc(O)cc4c32)cc1 (stereo not drawn) [4f, 3-Amino-1-(4-methylphenyl)-9-hydroxy-1H-benzo[f]chromene-2-carbonitrile]
IC50 (SKOV-3; Homo sapiens, SK-OV-3): 35.2 ± 1.3 µM | IC50 (PC-3 [1]; Homo sapiens, PC-3): 37.2 ± 1.3 µM | IC50 (HeLa [2]; Homo sapiens, HeLa): 33.7 ± 1.3 µM | melting point: 258 to 259 °C

COc1ccc(C2C(C#N)=C(N)Oc3ccc4ccc(O)cc4c32)cc1 (stereo not drawn) [4g, 3-Amino-1-(4-methoxyphenyl)-9-hydroxy-1H-benzo[f]chromene-2-carbonitrile]
IC50 (MCF-7/ADR): 30.5 ± 0.7 µM | activity against MCF-7/ADR cell (in words) (MCF-7/ADR): inactive | IC50 (SKOV-3; Homo sapiens, SK-OV-3): 0.7 ± 0.8 µM | times more potency than Doxorubicin, SKOV-3 (SKOV-3): 1.6 times | times more potency than Vinblastine, SKOV-3 (SKOV-3): 4.6 times | IC50 (human fetal lung (HFL-1)): 77.5 ± 0.1 µM | IC50 (PC-3 [1]; Homo sapiens, PC-3): 0.9 ± 0.4 µM | times more potent than Doxorubicin, PC-3 (PC-3 [1]; ratio of IC50 values, PC-3): 1.4 times | times more potent than Vinblastine, PC-3 (PC-3 [1]; ratio of IC50 values, PC-3): 8.3 times | IC50 [3]: 84.5 ± 1.1 µM | IC50 (HeLa [2]; Homo sapiens, HeLa): 0.9 ± 1.5 µM | melting point: 229 to 230 °C

N#CC1=C(N)Oc2ccc3ccc(O)cc3c2C1c1ccc([N+](=O)[O-])cc1 (stereo not drawn) [4h, 3-Amino-1-(4-nitrophenyl)-9-hydroxy-1H-benzo[f]chromene-2-carbonitrile]
IC50 (MCF-7/ADR): 19.2 ± 0.7 µM | activity against MCF-7/ADR cell (in words) (MCF-7/ADR): inactive | IC50 (SKOV-3; Homo sapiens, SK-OV-3): 0.6 ± 0.1 µM | times more potency than Doxorubicin, SKOV-3 (SKOV-3): 1.8 times | times more potency than Vinblastine, SKOV-3 (SKOV-3): 5.3 times | IC50 (human fetal lung (HFL-1)): 84.9 ± 0.1 µM | IC50 (PC-3 [1]; Homo sapiens, PC-3): 0.7 ± 0.4 µM | times more potent than Vinblastine, PC-3 (PC-3 [1]; ratio of IC50 values, PC-3): 10.7 times | IC50 [3]: 79.4 ± 0.1 µM | IC50 (HeLa [2]; Homo sapiens, HeLa): 0.9 ± 0.4 µM | melting point: 262 to 263 °C

N#CC1=C(N)Oc2ccc3ccc(O)cc3c2C1c1ccc(OCc2ccccc2)cc1 (stereo not drawn) [4i, 3-Amino-1-(4-(benzyloxy)phenyl)-9-hydroxy-1H-benzo[f]chromene-2-carbonitrile]
IC50 (SKOV-3; Homo sapiens, SK-OV-3): 3.5 ± 0.3 µM | IC50 (PC-3 [1]; Homo sapiens, PC-3): 3.2 ± 1 µM | IC50 (HeLa [2]; Homo sapiens, HeLa): 3.3 ± 0.3 µM | melting point: 269 to 279 °C

N#CC1=C(N)Oc2ccc3ccc(O)cc3c2C1c1ccc2c(c1)OCO2 (stereo not drawn) [4j, 3-Amino-1-(benzo[d][1,3]dioxol-5-yl)-9-hydroxy-1H-benzo[f]chromene-2-carbonitrile]
IC50 (SKOV-3; Homo sapiens, SK-OV-3): 3.9 ± 0.6 µM | IC50 (PC-3 [1]; Homo sapiens, PC-3): 6.6 ± 0.5 µM | IC50 (HeLa [2]; Homo sapiens, HeLa): 2.5 ± 0.2 µM | melting point: 260 to 261 °C

N#CC1=C(N)Oc2ccc3ccc(O)cc3c2C1c1cccnc1 (stereo not drawn) [4k, 3-Amino-9-hydroxy-1-(pyridin-3-yl)-1H-benzo[f]chromene-2-carbonitrile]
IC50 (SKOV-3; Homo sapiens, SK-OV-3): 6.3 ± 0.8 µM | IC50 (PC-3 [1]; Homo sapiens, PC-3): 10.6 ± 0.5 µM | IC50 (HeLa [2]; Homo sapiens, HeLa): 76.4 ± 0.7 µM | melting point: 296 to 297 °C

N#CC1=C(N)Oc2ccc3ccc(O)cc3c2C1c1ccncc1 (stereo not drawn) [4l, 3-Amino-9-hydroxy-1-(pyridin-4-yl)-1H-benzo[f]chromene-2-carbonitrile]
IC50 (SKOV-3; Homo sapiens, SK-OV-3): 5.1 ± 0.8 µM | IC50 (PC-3 [1]; Homo sapiens, PC-3): 17.7 ± 0.7 µM | IC50 (HeLa [2]; Homo sapiens, HeLa): 11.5 ± 0.9 µM | melting point: 294 to 295 °C

CC[C@]1(O)C[C@@H]2CN(CCc3c([nH]c4ccccc34)[C@@](C(=O)OC)(c3cc4c(cc3OC)N(C)[C@H]3[C@@](O)(C(=O)OC)[C@H](OC(C)=O)[C@]5(CC)C=CCN6CC[C@]43[C@@H]65)C2)C1 [Vinblastine, reference compound]
IC50 (SKOV-3): 3.2 ± 1.2 µM | IC50 (PC-3 [1]): 7.5 ± 1.3 µM | IC50 (HeLa [2]): 5.7 ± 1.1 µM

N#CC1=C(N)Oc2ccc3ccc(Br)cc3c2C1c1cccc(Cl)c1 (stereo not drawn) [compound 1]
IC50 (MCF-7): 45.8 µM | IC50 (HepG-2): 0.77 µM | IC50 (HCT-116): 1.36 µM

N#CC1=C(N)Oc2ccc3ccc(Br)cc3c2C1c1ccc(Cl)cc1 (stereo not drawn) [compound 2]
IC50 (MCF-7): 9.63 µM | IC50 (HepG-2): 1.67 µM | IC50 (HCT-116): 0.8 µM

N#CC1=C(N)Oc2ccc3ccc(Br)cc3c2C1c1cccc(Cl)c1Cl (stereo not drawn) [compound 3]
IC50 (MCF-7): 0.49 µM | IC50 (HepG-2): 7.59 µM | IC50 (HCT-116): 0.64 µM

N#CC1=C(N)Oc2ccc3ccc(Br)cc3c2C1c1ccc(Cl)c(Cl)c1 (stereo not drawn) [compound 4]
IC50 (MCF-7): 7.61 µM | IC50 (HepG-2): 0.47 µM | IC50 (HCT-116): 25 µM

COc1c(Br)cc(Br)cc1C1C(C#N)=C(N)Oc2ccc3ccc(Br)cc3c21 (stereo not drawn) [compound 5]
IC50 (MCF-7): 3.67 µM | IC50 (HepG-2): 0.71 µM | IC50 (HCT-116): 0.58 µM

COc1ccc2ccc3c(c2c1)C(c1ccc(Br)cc1)C(C#N)=C(N)O3 (stereo not drawn) [compound 6]
IC50 (HeLa [4]): 11.6 µM | IC50 (A549): 12.7 µM | IC50 (PC-3 [5]): 13.6 µM | IC50 (MIA PaCa-2): 6.8 µM | IC50 (RPMI 7951): 5.9 µM | IC50 (MDA-MB-231): 7.8 µM

COc1ccc2ccc3c(c2c1)C(c1ccc(I)cc1)C(C#N)=C(N)O3 (stereo not drawn) [compound 7]
IC50 (HeLa [4]): 12.1 µM | IC50 (A549): 13.1 µM | IC50 (PC-3 [5]): 12.9 µM | IC50 (MIA PaCa-2): 6.2 µM | IC50 (RPMI 7951): 6.5 µM | IC50 (MDA-MB-231): 8.9 µM

COc1ccc2ccc3c(c2c1)C(c1ccc(Cl)cc1Cl)C(C#N)=C(N)O3 (stereo not drawn) [compound 8]
IC50 (HeLa [4]): 7.6 µM | IC50 (A549): 6.8 µM | IC50 (PC-3 [5]): 8.7 µM | IC50 (MIA PaCa-2): 6 µM | IC50 (RPMI 7951): 5.3 µM | IC50 (MDA-MB-231): 7.1 µM

COc1ccc2ccc3c(c2c1)C(c1cc(Cl)ccc1Cl)C(C#N)=C(N)O3 (stereo not drawn) [compound 9]
IC50 (HeLa [4]): 13.2 µM | IC50 (A549): 8.5 µM | IC50 (PC-3 [5]): 11.5 µM | IC50 (MIA PaCa-2): 6.8 µM | IC50 (RPMI 7951): 5.7 µM | IC50 (MDA-MB-231): 8.1 µM

COc1ccc2ccc3c(c2c1)C(c1ccc(Cl)c(Cl)c1)C(C#N)=C(N)O3 (stereo not drawn) [compound 10]
IC50 (HeLa [4]): 12.9 µM | IC50 (A549): 13.6 µM | IC50 (PC-3 [5]): 14.6 µM | IC50 (MIA PaCa-2): 6.2 µM | IC50 (RPMI 7951): 5.1 µM | IC50 (MDA-MB-231): 8.4 µM
